Two molecules from BindingDB's records for patent US11147816 (Genuv, 2021) can be followed below.

Assay [1] deals with Dual specificity mitogen-activated protein kinase kinase 2 (Homo sapiens, UniProt P36507). The experiment in a line: MEK 1/2 inhibition.
Assay [2] deals with Dual specificity mitogen-activated protein kinase kinase 1 (Homo sapiens, UniProt Q02750). The assay is described as follows: MEK 1/2 inhibition.
Chain of Dual specificity mitogen-activated protein kinase kinase 1 (Q02750 whole entry): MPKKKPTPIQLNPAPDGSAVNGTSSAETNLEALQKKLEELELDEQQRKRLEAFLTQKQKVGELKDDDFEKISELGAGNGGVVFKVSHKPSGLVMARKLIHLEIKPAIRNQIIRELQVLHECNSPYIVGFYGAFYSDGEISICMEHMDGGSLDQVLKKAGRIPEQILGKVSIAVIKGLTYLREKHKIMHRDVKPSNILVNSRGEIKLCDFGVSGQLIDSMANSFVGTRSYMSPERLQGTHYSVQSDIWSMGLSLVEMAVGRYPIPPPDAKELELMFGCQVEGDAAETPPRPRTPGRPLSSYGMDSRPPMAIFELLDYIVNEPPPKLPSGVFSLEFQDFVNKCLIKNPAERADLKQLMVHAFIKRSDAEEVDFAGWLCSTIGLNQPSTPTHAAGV

Chain of Dual specificity mitogen-activated protein kinase kinase 2 (P36507 whole entry): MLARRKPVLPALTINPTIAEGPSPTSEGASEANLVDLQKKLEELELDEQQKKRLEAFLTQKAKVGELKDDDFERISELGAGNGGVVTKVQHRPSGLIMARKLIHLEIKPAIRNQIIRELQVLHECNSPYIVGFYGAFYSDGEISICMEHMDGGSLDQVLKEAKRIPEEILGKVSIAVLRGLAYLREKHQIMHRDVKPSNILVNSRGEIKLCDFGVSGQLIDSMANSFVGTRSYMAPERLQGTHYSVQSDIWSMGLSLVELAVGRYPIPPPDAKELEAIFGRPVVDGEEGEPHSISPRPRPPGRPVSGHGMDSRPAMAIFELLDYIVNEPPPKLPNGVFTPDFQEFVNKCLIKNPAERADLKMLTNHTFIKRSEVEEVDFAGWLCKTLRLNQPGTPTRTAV

For `COc1cc(F)c(F)c(Nc2ccc(I)cc2F)c1NS(=O)(=O)C1(C[C@H](O)CO)CC1` [US11147816, Refametinib (RDEA119, Bay], in assay [1], inhibition was half-maximal at 47 nM (IC50).
`O=C(NOC[C@@H](O)CO)c1cc(Br)c(F)c(F)c1Nc1ccc(I)cc1F` [US11147816, PD318088] came in with an IC50 in assay [2] of 1.4 nM.

One may read the IC50 as the midpoint of a concentration-inhibition curve.
